Measurements: US20250098679A1, “HERBICIDAL PYRIDONE DERIVATIVES” (SYNGENTA CROP PROTECTION AG, priority 2021, published 2025)

Columns and labels:
Assay type in all cases: in vivo
Conditions in all cases: evaluated after 13 days
Setaria faberi (SETFA) [1] = assay: Post-emergence Test, Setaria faberi (SETFA); set-up: key to percentage damage caused to the plant, SETFA (five-point scale): 5=81-100%, 4=61-80%, 3=41-60%, 2=21-40%, 1=0-20% damage
Outline: (§1)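 Spray application at 1000 g/ha unless otherwise stated. Damage was scored 13 days later as 1 (0-20%) to 5 (81-100%).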

Zea mays (ZEAMX) [2] = assay: Pre-emergence Test, Zea mays (ZEAMX)
[3] = test system: Echinochloa crus-galli (ECHCG); assay: Pre-emergence Test, Echinochloa crus-galli (ECHCG)
[4] = test system: Echinochloa crus-galli (ECHCG); assay: Post-emergence Test, Echinochloa crus-galli (ECHCG); set-up: key to percentage damage caused to the plant, ECHCG (five-point scale): 5=81-100%, 4=61-80%, 3=41-60%, 2=21-40%, 1=0-20% damage
Outline: as §1

Setaria faberi (SETFA) [5] = assay: Pre-emergence Test, Setaria faberi (SETFA)
[6] = test system: Ipomoea hederacea (IPOHE); assay: Post-emergence Test, Ipomoea hederacea (IPOHE); set-up: key to percentage damage caused to the plant, IPOHE (five-point scale): 5=81-100%, 4=61-80%, 3=41-60%, 2=21-40%, 1=0-20% damage
Outline: as §1

[7] = test system: Amaranthus retoflexus (AMARE); assay: Post-emergence Test, Amaranthus retoflexus (AMARE); set-up: key to percentage damage caused to the plant, AMARE (five-point scale): 5=81-100%, 4=61-80%, 3=41-60%, 2=21-40%, 1=0-20% damage
Outline: as §1

[8] = test system: Amaranthus palmeri (AMAPA); assay: Pre-emergence Test, Amaranthus palmeri (AMAPA)
Zea mays (ZEAMX) [9] = assay: Post-emergence Test, Zea mays (ZEAMX); set-up: key to percentage damage caused to the plant, ZEAMX (five-point scale): 5=81-100%, 4=61-80%, 3=41-60%, 2=21-40%, 1=0-20% damage
Outline: as §1

[10] = test system: Ipomoea hederacea (IPOHE); assay: Pre-emergence Test, Ipomoea hederacea (IPOHE)
[11] = test system: Amaranthus palmeri (AMAPA); assay: Post-emergence Test, Amaranthus palmeri (AMAPA); set-up: key: 5=81-100%, 4=61-80%, 3=41-60%, 2=21-40%, 1=0-20% damage
Outline: as §1

[12] = test system: Amaranthus retoflexus (AMARE); assay: Pre-emergence Test, Amaranthus retoflexus (AMARE)

Row | SMILES | percentage damage caused to the plant, SETFA (five-point scale) (Setaria faberi (SETFA) [1]; 250 g/Ha) | percentage damage caused to the plant, SETFA (five-point scale) (Setaria faberi (SETFA) [1]; 1000 g/ha) | Pre-emergence Test ZEAMX, percentage damage caused to the plant (five-point scale) (Zea mays (ZEAMX) [2]; 250 g/Ha (*)) | Pre-emergence Test ZEAMX, percentage damage caused to the plant (five-point scale) (Zea mays (ZEAMX) [2]; 1000 g/ha) | Pre-emergence Test ECHCG, percentage damage caused to the plant (five-point scale) ([3]; 250 g/Ha (*)) | Pre-emergence Test ECHCG, percentage damage caused to the plant (five-point scale) ([3]; 1000 g/ha) | percentage damage caused to the plant, ECHCG (five-point scale) ([4]; 250 g/Ha) | percentage damage caused to the plant, ECHCG (five-point scale) ([4]; 1000 g/ha) | Pre-emergence Test SETFA, percentage damage caused to the plant (five-point scale) (Setaria faberi (SETFA) [5]; 250 g/Ha (*)) | Pre-emergence Test SETFA, percentage damage caused to the plant (five-point scale) (Setaria faberi (SETFA) [5]; 1000 g/ha) | percentage damage caused to the plant, IPOHE (five-point scale) ([6]; 250 g/Ha) | percentage damage caused to the plant, IPOHE (five-point scale) ([6]; 1000 g/ha) | percentage damage caused to the plant, AMARE (five-point scale) ([7]; 250 g/Ha) | percentage damage caused to the plant, AMARE (five-point scale) ([7]; 1000 g/ha) | Pre-emergence Test AMAPA, percentage damage caused to the plant (five-point scale) ([8]; 250 g/Ha (*)) | Pre-emergence Test AMAPA, percentage damage caused to the plant (five-point scale) ([8]; 1000 g/ha) | percentage damage caused to the plant, ZEAMX (five-point scale) (Zea mays (ZEAMX) [9]; 250 g/Ha) | percentage damage caused to the plant, ZEAMX (five-point scale) (Zea mays (ZEAMX) [9]; 1000 g/ha) | Pre-emergence Test IPOHE, percentage damage caused to the plant (five-point scale) ([10]; 250 g/Ha (*)) | Pre-emergence Test IPOHE, percentage damage caused to the plant (five-point scale) ([10]; 1000 g/ha) | further results
1 | CCn1c(Cn2nc(C)cc2OC)cc(=O)c(C(=O)O)c1-c1ccc(Cl)c(Cl)c1 [Compound 127, 2-(3,4-dichlorophenyl)-1-ethyl-6-[(5-methoxy-3-methyl-pyrazol-1-yl)methyl]-4-oxo-pyridine-3-carboxylic acid] | 3 (3=41-60%) | 3 (3=41-60%) | 0 | 4 (4=61-80%) | 1 (1=0-20%) | 3 (3=41-60%) | 2 (2=21-40%) | 4 (4=61-80%) | 3 (3=41-60%) | 5 (5=81-100%) | 1 (1=0-20%) | 3 (3=41-60%) | 0 | 2 (2=21-40%) | 1 (1=0-20%) | 1 (1=0-20%) | 1 (1=0-20%) | 3 (3=41-60%) | 0 | 2 (2=21-40%) | percentage damage caused to the plant, AMAPA (five-point scale) ([11]; 250 g/Ha): 0; percentage damage caused to the plant, AMAPA (five-point scale) ([11]; 1000 g/ha): 3 (3=41-60%); Pre-emergence Test AMARE, percentage damage caused to the plant (five-point scale) ([12]; 250 g/Ha (*)): 1 (1=0-20%); Pre-emergence Test AMARE, percentage damage caused to the plant (five-point scale) ([12]; 1000 g/ha): 2 (2=21-40%)
2 | CCn1c(Cn2nccc2Cl)cc(=O)c(C(=O)O)c1-c1ccc(Cl)c(Cl)c1 [Compound 80, 6-[(5-chloropyrazol-1-yl)methyl]-2-(3,4-dichlorophenyl)-1-ethyl-4-oxo-pyridine-3-carboxylic acid] | 3 (3=41-60%) | 4 (4=61-80%) | 0 | 0 | 3 (3=41-60%) | 5 (5=81-100%) | 3 (3=41-60%) | 4 (4=61-80%) | 4 (4=61-80%) | 5 (5=81-100%) | 4 (4=61-80%) | 3 (3=41-60%) | 2 (2=21-40%) | 2 (2=21-40%) | 1 (1=0-20%) | 1 (1=0-20%) | 1 (1=0-20%) | 3 (3=41-60%) | 2 (2=21-40%) | 3 (3=41-60%) | percentage damage caused to the plant, AMAPA (five-point scale) ([11]; 250 g/Ha): 2 (2=21-40%); percentage damage caused to the plant, AMAPA (five-point scale) ([11]; 1000 g/ha): 2 (2=21-40%); Pre-emergence Test AMARE, percentage damage caused to the plant (five-point scale) ([12]; 250 g/Ha (*)): 0; Pre-emergence Test AMARE, percentage damage caused to the plant (five-point scale) ([12]; 1000 g/ha): 0
